Source: the NIST ThermoML archive (doi:10.1021/je049671t)
± gives the expanded uncertainty stated by the source.

Assay: xn = mol fraction of the nth substance listed
Settings: Liquid, Vibrating tube method

CCCC [butane] + CCC
Settings	mass density [kg/m3]
300 K, 4513.8 kPa, x2 = 0.75	523.55 ± 0.34
300 K, 4514.7 kPa, x2 = 0.5	543.88 ± 0.33
300 K, 4953.2 kPa, x2 = 0.5	544.76 ± 0.34
300 K, 5016.7 kPa, x2 = 0.75	524.69 ± 0.35
300 K, 5031 kPa, x2 = 0.25	562.9 ± 0.33
300 K, 5451.1 kPa, x2 = 0.25	563.65 ± 0.33
300 K, 5474.7 kPa, x2 = 0.75	525.74 ± 0.35
300 K, 5508.8 kPa, x2 = 0.5	545.86 ± 0.34
300 K, 5929.8 kPa, x2 = 0.25	564.5 ± 0.34
300 K, 5950 kPa, x2 = 0.75	526.78 ± 0.36
300 K, 5953 kPa, x2 = 0.5	546.73 ± 0.35
300 K, 6466.1 kPa, x2 = 0.5	547.72 ± 0.36
300 K, 6473.6 kPa, x2 = 0.75	527.92 ± 0.36
300 K, 6488.8 kPa, x2 = 0.25	565.48 ± 0.35
300 K, 6959.9 kPa, x2 = 0.5	548.68 ± 0.36
300 K, 7015.2 kPa, x2 = 0.75	529.08 ± 0.37
300 K, 7074.7 kPa, x2 = 0.25	566.49 ± 0.35
320 K, 997.4 kPa, x2 = 0.25	529.12 ± 0.29
320 K, 1482.2 kPa, x2 = 0.25	530.41 ± 0.3
320 K, 1496.3 kPa, x2 = 0.5	509.2 ± 0.31
320 K, 1509.8 kPa, x2 = 0.75	484.66 ± 0.3
320 K, 1996.7 kPa, x2 = 0.25	531.76 ± 0.3
320 K, 2010.3 kPa, x2 = 0.5	510.79 ± 0.31
320 K, 2020.7 kPa, x2 = 0.75	486.64 ± 0.31
320 K, 2497.1 kPa, x2 = 0.75	488.41 ± 0.32
320 K, 2502.8 kPa, x2 = 0.25	533.06 ± 0.31
320 K, 2516.5 kPa, x2 = 0.5	512.32 ± 0.32
320 K, 2999.8 kPa, x2 = 0.5	513.74 ± 0.32
320 K, 3011.6 kPa, x2 = 0.75	490.26 ± 0.32
320 K, 3012.6 kPa, x2 = 0.25	534.34 ± 0.32
320 K, 3459.5 kPa, x2 = 0.75	491.82 ± 0.33
320 K, 3509.2 kPa, x2 = 0.5	515.19 ± 0.33
320 K, 3516.7 kPa, x2 = 0.25	535.58 ± 0.32
320 K, 4012.1 kPa, x2 = 0.25	536.73 ± 0.33
320 K, 4013.7 kPa, x2 = 0.75	493.68 ± 0.34
320 K, 4017.1 kPa, x2 = 0.5	516.6 ± 0.34
320 K, 4472 kPa, x2 = 0.25	537.8 ± 0.33
320 K, 4497.4 kPa, x2 = 0.5	517.9 ± 0.34
320 K, 4512.7 kPa, x2 = 0.75	495.29 ± 0.35
320 K, 4988.6 kPa, x2 = 0.5	519.21 ± 0.35
320 K, 4989.7 kPa, x2 = 0.25	539 ± 0.34
320 K, 5019.1 kPa, x2 = 0.75	496.89 ± 0.36
320 K, 5490.6 kPa, x2 = 0.5	520.51 ± 0.36
320 K, 5501 kPa, x2 = 0.25	540.19 ± 0.35
320 K, 5520.4 kPa, x2 = 0.75	498.43 ± 0.36
320 K, 5989.8 kPa, x2 = 0.5	521.77 ± 0.36
320 K, 6001.7 kPa, x2 = 0.75	499.85 ± 0.37
320 K, 6013.9 kPa, x2 = 0.25	541.36 ± 0.35
320 K, 6479.5 kPa, x2 = 0.5	522.98 ± 0.37
320 K, 6522.9 kPa, x2 = 0.75	501.37 ± 0.38
320 K, 6524.6 kPa, x2 = 0.25	542.42 ± 0.36
320 K, 7003.8 kPa, x2 = 0.25	543.49 ± 0.36
320 K, 7020.7 kPa, x2 = 0.75	502.78 ± 0.38
320 K, 7116.4 kPa, x2 = 0.5	524.52 ± 0.38
340 K, 1485.3 kPa, x2 = 0.25	500.98 ± 0.31
340 K, 1990.9 kPa, x2 = 0.25	502.87 ± 0.31
340 K, 1994.9 kPa, x2 = 0.75	448.06 ± 0.3
340 K, 2013.6 kPa, x2 = 0.5	478.5 ± 0.31
340 K, 2454.3 kPa, x2 = 0.25	504.54 ± 0.32
340 K, 2508.8 kPa, x2 = 0.5	480.75 ± 0.32
340 K, 2527.2 kPa, x2 = 0.75	451.44 ± 0.31
340 K, 2997.6 kPa, x2 = 0.25	506.44 ± 0.33
340 K, 3013.6 kPa, x2 = 0.5	482.96 ± 0.33
340 K, 3018 kPa, x2 = 0.75	454.37 ± 0.31
340 K, 3488 kPa, x2 = 0.25	508.09 ± 0.33
340 K, 3515.5 kPa, x2 = 0.5	485.04 ± 0.33
340 K, 3542.6 kPa, x2 = 0.75	457.27 ± 0.32
340 K, 3984.5 kPa, x2 = 0.25	509.71 ± 0.34
340 K, 4016.2 kPa, x2 = 0.5	487.04 ± 0.34
340 K, 4021.6 kPa, x2 = 0.75	459.81 ± 0.33
340 K, 4469.1 kPa, x2 = 0.75	462.01 ± 0.33

mass density [kg/m3]
Settings	x2 = 0.25	x2 = 0.5	x2 = 0.75
300 K	554.07 ± 0.27	535.4 ± 0.28	514.2 ± 0.28
320 K	528.42 ± 0.28	507.52 ± 0.29	483.71 ± 0.28
